Laboratory results: patent publication US20210038742A1, “CONJUGATION OF TLR7 AGONIST TO NANO-MATERIALS ENHANCES THE AGONISTIC ACTIVITY” (priority 2019, published 2021)

Columns and labels:
TLR7 [1] = biological target: T1, TLR7 (Mus musculus, UniProt P58681); assay: IL-6 release in mouse BMDCs (ELISA); type: cell-based
T1 construct: endogenous in cells; host or cells: mouse bone marrow-derived dendritic cells (BMDCs)
T1 sequence (P58681 27-1050): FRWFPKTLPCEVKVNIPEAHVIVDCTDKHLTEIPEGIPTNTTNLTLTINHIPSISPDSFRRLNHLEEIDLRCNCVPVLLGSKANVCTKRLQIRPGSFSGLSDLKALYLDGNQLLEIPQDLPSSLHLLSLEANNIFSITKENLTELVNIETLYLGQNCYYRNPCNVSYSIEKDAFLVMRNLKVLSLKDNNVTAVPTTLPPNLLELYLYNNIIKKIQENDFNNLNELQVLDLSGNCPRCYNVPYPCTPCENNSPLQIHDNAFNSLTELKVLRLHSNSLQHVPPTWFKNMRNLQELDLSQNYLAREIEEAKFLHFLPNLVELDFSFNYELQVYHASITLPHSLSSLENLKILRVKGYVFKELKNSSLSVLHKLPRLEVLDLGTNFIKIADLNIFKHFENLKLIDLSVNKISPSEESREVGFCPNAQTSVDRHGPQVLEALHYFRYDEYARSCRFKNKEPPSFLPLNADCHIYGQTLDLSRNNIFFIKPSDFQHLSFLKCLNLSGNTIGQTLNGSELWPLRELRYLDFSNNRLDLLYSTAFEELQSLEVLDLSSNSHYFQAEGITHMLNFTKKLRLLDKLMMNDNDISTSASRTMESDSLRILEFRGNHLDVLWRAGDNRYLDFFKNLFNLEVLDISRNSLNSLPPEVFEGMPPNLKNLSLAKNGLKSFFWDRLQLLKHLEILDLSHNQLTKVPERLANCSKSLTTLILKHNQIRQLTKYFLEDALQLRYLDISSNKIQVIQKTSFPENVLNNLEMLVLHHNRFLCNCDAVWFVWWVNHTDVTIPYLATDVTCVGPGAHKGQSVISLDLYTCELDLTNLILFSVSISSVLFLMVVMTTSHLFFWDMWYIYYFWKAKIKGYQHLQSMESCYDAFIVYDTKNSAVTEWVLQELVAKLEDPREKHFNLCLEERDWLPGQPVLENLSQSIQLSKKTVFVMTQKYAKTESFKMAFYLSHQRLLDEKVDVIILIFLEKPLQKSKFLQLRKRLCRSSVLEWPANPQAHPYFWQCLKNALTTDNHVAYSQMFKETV
Protocol: (§1) FIGS. 4A-4E. […] Mouse BMDCs or human PBMCs were plated and incubated with serially diluted 1V209 nanoshells conjugates at different coating densities (high, medium, or low density conjugates, unconjugated TLR7 ligand 1V209, or silica nanoshells for 18 hours. Control cells were treated with 1 μM resiquimod or 0.5% DMSO as vehicle. IL-6 (A) and IL-12 (B) released in the culture supernatants of mouse BMDCs were measured using ELISA. (C) Cytotoxicity in BMDCs was measured by MTT assay. (D) IL-6 released in the culture supernatants of human PBMCs. (E) IL-6 released in the culture supernatants BMDCs isolated from TLR7 deficient mice.
(§2) The correlation between TLR7 ligands density and cytokines induction level was further investigated. To test this, mouse bone marrow-derived dendritic cells (BMDCs) or human peripheral blood mononuclear cells (PBMCs) were treated with unconjugated 1V209, SiO2 nanoshells, or 1V209-nanoshell conjugates with different coating densities (high, medium, or low coating densities). The levels of IL-6 and IL-12 release in the culture supernatant were measured. […] Different formula of conjugates were also tested their cytotoxicity in BMDCs. […] To determine whether the immune potency of 1V209-nanoshell conjugates was TLR7 specific, conjugates was performed in TLR7 deficient BMDCs. […] Thus, high coating of TLR7 agonists silica shells are denoted as 1v209-NS conjugates in the following description.

TLR7 [2] = biological target: T1, TLR7; assay: IL-12 release in mouse BMDCs (ELISA); type: cell-based
Protocol: as §1
FIG. 23. In vitro cytokine induction of NS-TLR in murine cells. Mouse BMDCs (10^5 cells) were plated and incubated with serially diluted 100 nm NS-TLR at different coating densities for 18 hours. IL-12 released in the culture supernatants of mouse BMDCs incubated with unconjugated 1V209, high, medium, low coating density NS-TLR, and silica shells. IL-12 cytokine was measured via ELISA. All data are representative dose response curves in mean±SD with triplicate technical repeats. Data are representative of three independent experiments showing similar results. Data were analyzed by two-way ANOVA with Tukey's post hoc analysis.
as §2

NLRP3 inflammasome = assay: IL-1β release in BMDCs (ELISA); type: cell-based, mouse; settings: supernatant
Protocol: FIGS. 5A-5C. TLR7 agonist-silica nanoshells conjugates generate high level of IL-1p in BMDCs. 75-2500 nM of TLR7 agonist-silcia shells conjugates were incubated with BMDCs for 24 hours at 37° C., 5% CO2. IL-1β level in supernatant was determined by ELISA. Mechanism figure reference: He, Y. et. al. (2016).
FIG. 24. In vitro IL-1β release of NS-TLR and mixture in BMDCs. 75-2500 nM of NS-TLR (high coating density) and mixture of silica nanoshells and 1V209 were incubated with wild type BMDCs for 18 hours. IL-1p cytokine was measured via ELISA. Dose response curves are in means SD. Data were analyzed by t test.
IL-1β secretion by dendritic cells is mandatory for T cell priming (Ghiringhelli et al., 2009). A two-pronged pathway has been proposed for NLRP3 inflammasome activation in macrophages and DCs. In this model, the first signal is triggered by microbial or endogenous molecules that generate NLRP3 and pro-IL-1p expression through activation of NF-κB; the second signal is triggered by ATP, pore-forming toxins, viral RNA and particulate matters such as silica nanoparticles. […] Resting DCs/macrophages have insufficient NLRP3 in the cells, and therefore, incubating with NLRP3 activator (silica nanoshells) results in no or minimal IL-1β.

CT26 tumors = assay: CT26 tumor model, intratumoral monotherapy (tumor growth, CD3 IHC, IFN-γ RT-qPCR); type: in vivo, mouse; settings: single agent
Source text: FIGS. 13A-13F. Tumor growth regression in mice treated with NS-TLR7a. BALB/c mice were implanted with CT26 cells and treatment began when tumors reached 100 mm^3. Mice (n=5/group) were randomized and treated with vehicle (PBS), silica NS, unconjugated agonist (TLR7a), or NS-TLR7a every other day. Tumor tissues were collected on day 10 post treatment for analysis. A) Protocol of treatment. B) Average tumor growth curves per treatment. (C and D) Immunohistochemistry (IHC) images of CD3^+ cells infiltrating into the tumor environments for (C) unconjugated TLR7a or (D) TLR7a-NS conjugates locally injected tumor. (E and F) IFN-γ gene expression level (E) and (F) quantified CD3^+ T cells (F) in tumor samples for vehicle, NS, TLR7a, and TLR7a-NS conjugate treated groups (n=4-5/group). Representative IHC images were shown. […]
Animals and Tumor Model: Mouse colon cancer cell line CT26 (Cat. No. CRL-2638) was purchased from American Type Culture Collection (ATCC). […] Tumor volume was determined by caliper with the formula: volume (mm^3)=(width×width×length)/2. […]
To test the anti-tumor effects of TLR7 with or without conjugation onto silica nanoshells in vivo, silica NS, unconjugated TLR7a (TLR7 agonist), and NS-TLR7a were tested in a CT26 mouse tumor model. […] On day 8, tumors were harvested for immunohistochemistry (IHC) analysis and CD3^+ cells were assessed as T cell population in the tumor microenvironment.

[3] = BMDCs, 18 hours, ELISA, means ± SD

COCCOc1nc(N)c2[nH]c(=O)n(Cc3ccc(C(=O)O)cc3)c2n1 [1V209, 4-[6-Amino-2-(2-methoxyethoxy)-8-oxo-7H-purin-9(8H)-yl]methylbenzoic acid]
Emax, IL-6, normalized to unconjugated 1V209 (=1X) (TLR7 [1]): 1 × | EC50 (TLR7 [1]; [3]): 1080 ± 101 nM | Emax, IL-6 (TLR7 [1]; [3]): 9.9 ± 1.0 ng/mL | Emax, IL-12, normalized to unconjugated 1V209 (=1X) (TLR7 [2]): 1 × | EC50 (TLR7 [2]; [3]): 883 ± 193 nM | Emax, IL-12 (TLR7 [2]; [3]): 3.2 ± 2.3 ng/mL | IL-1β level (NLRP3 inflammasome): very low levels or zero | tumor remission (CT26 tumors): did not result in tumor remission
